Measured values published in patent publication US6693082B2, “Method of inhibiting metastatic dissemination using desmopressin” (priority 1999, dated 2004).
Marks after values point to notes of the source that are not given here.

Legend:
[1] = in vivo, cited from earlier work
[2] = tested on: murine mammary cancer cell line F3II (sarcomatoid carcinoma); experiment: Assay 1: inhibition of pulmonary metastatic colonization, i.v. inoculated F3II cells in BALB/c mice; assay type: in vivo
Procedure: (§1) Assay 1: Inhibition of Metastatic Colonization by the Application of Desmopressin 12-16 weeks old syngenic mice from the BALB/c strain weighing 25 g on average were used. As tumor cells, murine mammary cancer cell lines […] (sarcomatoid carcinoma) and LM3 (poorly differentiated adenocarcinoma) were used and kept in monolayer culture in minimum essential medium (MEM, Gibco, Grand Island, N.Y.), supplemented with 5% heat-inactivated bovine fetal serum, 2 mM glutamine and gentamicine 80 μg/ml ([…]. Farías, […]. Bal de Kier Joffé, Characterization of […], a Mammary Sarcomatoid Carcinoma Cell Line Originated From a Mouse Adenocarcinoma, J. Surg. Oncol. 1996, 62:288-97). In order to collect them, cells were trypsinized following conventional procedures. Desmopressin available from Ferring Pharmaceuticals (Malmo, Sweden) was used. Desmopressin as provided by Sigma Chemical Co. (St. Louis, Miss.) was also employed. Mice were inoculated with tumor cells at a concentration of 2×10^5 cells/0.3 ml MEM/mouse in the side vein of their tails, in accordance with the following schedule and using eight animals in each group: Coinjection with Desmopressin: tumor cells were preincubated in serum-free MEM and i.v. coinjected with desmopressin, at a final dose of 1 μg ([…] cells) or 2 μg (LM3 cells) per kg of body weight. Preincubation with Desmopressin: tumor cell suspensions were preincubated in serum-free MEM for 30-60 minutes at 37° C., in the presence of equivalent concentrations of desmopressin (80-160 ng/ml MEM). Then, cells were pelleted, resuspended in serum-free MEM and i.v. injected in the absence of desmopressin. Control: animals inoculated with tumor cells, with no desmopressin treatment. Three weeks after inoculation, lung weights were quantified and the number of pulmonary metastatic nodules was determined under the dissection microscope.

[3] = human, in vivo; cited from earlier work
[4] = tested on: murine mammary cancer cell line LM3 (poorly differentiated adenocarcinoma); experiment: Assay 1: inhibition of pulmonary metastatic colonization, i.v. inoculated LM3 cells in BALB/c mice; assay type: in vivo
Procedure: as §1

[5] = mouse, in vivo; cited from earlier work
[6] = tested on: F3II tumor cell suspensions; experiment: Assay 3A: cell survival of tumor cell suspensions, trypan blue; assay type: cell-based, murine; settings: 80 ng/ml and 160 ng/ml; 1-5 hours at 37° C. in serum-free MEM
Procedure: Assay 3: Cell Survival and Cytotoxicity In Vitro
A. F3II tumor cell suspensions were incubated at 37° C. in serum-free MEM: in the absence of desmopressin, in the presence of desmopressin, at concentrations of 80 ng/ml, in the presence of desmopressin, at concentrations of 160 ng/ml.
After 1-5 hours, cellular viability was assessed by the trypan blue technique. The results are shown in FIG. 2, where the absence of desmopressin (squares) and the presence of desmopressin are represented at concentrations of 80 ng/ml (triangles) and of 160 ng/ml (circles).

[7] = tested on: mammary carcinoma murine model F3II; settings: F3II cells in culture; 100 ng/ml at 1 μg/ml; cited from earlier work
[8] = tested on: breast carcinoma tumor cells F3II; experiment: Assay 2: extension of desmopressin action on experimental metastases (i.v. injection after tumor cell inoculation); assay type: in vivo, mice
Procedure: Assay 2: Extension of Desmopressin Action on Experimental Metastases Four groups of ten mice each were organized, and were inoculated with breast carcinoma tumor cells […], in accordance with the above description for Assay 1. Thereafter they were intravenously injected with desmopressin in 0.1 ml of physiological solution at different times (1.5 hours, 3 hours and 24 hours) after the inoculation with tumor cells. Quantification of pulmonary weights took place three weeks after tumoral inoculation. The results are depicted in FIG. 1, in which they are expressed as media±error standard. Similar results were obtained by quantifying the number of pulmonary metastatic nodules per animal.

NC(=O)CC[C@@H]1NC(=O)[C@H](Cc2ccccc2)NC(=O)[C@H](Cc2ccc(O)cc2)NC(=O)CCSSC[C@@H](C(=O)N2CCC[C@H]2C(=O)N[C@H](CCCN=C(N)N)C(=O)NCC(N)=O)NC(=O)[C@H](CC(N)=O)NC1=O [desmopressin, 1-deamino-8-D-arginine vasopressin]
Half-life ([1]; iv, 20 ug): ≤ 2.67 h
Drug eliminated unmetabolized [1]: 60%
Number of median pulmonary nodules (range) ([2]; F3II cells preincubated 30-60 minutes at 37° C. with desmopressin (80-160 ng/ml MEM), injected in absence of desmopressin, three weeks): 19 (3-66)
Decrease in number of metastatic nodules ([2]; F3II cells, coinjection with desmopressin vs control): about 70%
Number of median pulmonary nodules (range) ([2]; F3II cells, i.v. coinjection with desmopressin, final dose 1 μg per kg, three weeks after inoculation, p < 0.01 vs control): 5 (0-12)*
Incidence of metastatic nodules after tumor cell preincubation in vitro ([2]; F3II cells, preincubation with equivalent concentrations of desmopressin): did not lessen the incidence of metastatic nodules
Thrombotic risk [3]: 0.0001%
Number of median pulmonary nodules (range) ([4]; LM3 cells preincubated 30-60 minutes at 37° C. with desmopressin (80-160 ng/ml MEM), injected in absence of desmopressin, three weeks): 12 (8-37)
Decrease in number of metastatic nodules ([4]; LM3 cells, coinjection with desmopressin vs control): about 70%
Number of median pulmonary nodules (range) ([4]; LM3 cells, i.v. coinjection with desmopressin, final dose 2 μg per kg, three weeks after inoculation, p < 0.01 vs control): 3 (1-18)*
Incidence of metastatic nodules after tumor cell preincubation in vitro ([4]; LM3 cells, preincubation with equivalent concentrations of desmopressin): did not lessen the incidence of metastatic nodules
Effects of high dose in mice [5]: no relevant effects
Cell viability of tumor cell suspensions (trypan blue, FIG. 2) [6]: did not reduce cell viability
Breast cancer cell proliferation [7]: able to modulate
Urokinase secretion [7]: able to modulate
Extrapulmonary metastases ([8]; animals treated with desmopressin): No extrapulmonary metastases were found
Inhibition of metastases (pulmonary weights, FIG. 1) ([8]; desmopressin i.v. 24 hours after inoculation of tumor cells, three weeks after inoculation): inhibition of metastases was also effected

NC(=O)CC[C@@H]1NC(=O)[C@H](Cc2ccccc2)NC(=O)[C@H](Cc2ccc(O)cc2)NC(=O)[C@@H](N)CSSC[C@@H](C(=O)N2CCC[C@H]2C(=O)N[C@@H](CCCN=C(N)N)C(=O)NCC(N)=O)NC(=O)[C@H](CC(N)=O)NC1=O [vasopressin]
Breast cancer cell proliferation [7]: able to modulate
Urokinase secretion [7]: able to modulate
